Assays:
human glucagon receptor = target: T1, human glucagon receptor (Homo sapiens, UniProt P47871); assay: cAMP response (HTRF) of HEK-293 cells stably expressing human glucagon receptor; assay type: cell-based; conditions: Table 8; read-out: EC50 hGlucagon R
T1 construct: expressed in transfected cells; host or cells: HEK-293
Description: cAMP content of cells was determined using a kit from Cisbio Corp. (cat. no. 62AM4PEJ) based on HTRF (Homogenous Time Resolved Fluorescence). For preparation, cells were split into T175 culture flasks and grown overnight to near confluency in medium (DMEM/10% FBS). Medium was then removed and cells washed with PBS lacking calcium and magnesium, followed by proteinase treatment with accutase (Sigma-Aldrich cat. no. A6964). Detached cells were washed and resuspended in assay buffer (1×HBSS; 20 mM HEPES, 0.1% BSA, 2 mM IBMX) and cellular density determined. They were then diluted to 400000 cells/ml and 25 μl-aliquots dispensed into the wells of 96-well plates. For measurement, 25 μl of test compound in assay buffer was added to the wells, followed by incubation for 30 minutes at room temperature.
Potencies of peptidic compounds at the GLP-1, glucagon and GIP receptors were determined by exposing cells expressing human glucagon receptor (hGlucagon R), human GIP receptor (hGIP-R) or human GLP-1 receptor (hGLP-1 R) to the listed compounds at increasing concentrations and measuring the formed cAMP as described in Methods.

human GIP receptor = target: T2, human GIP receptor (Homo sapiens, UniProt P48546); assay: cAMP response (HTRF) of HEK-293 cells stably expressing human GIP receptor; assay type: cell-based; conditions: Table 8; read-out: EC50 hGIP R
T2 construct: expressed in transfected cells; host or cells: HEK-293
T2 sequence (P48546 22-466): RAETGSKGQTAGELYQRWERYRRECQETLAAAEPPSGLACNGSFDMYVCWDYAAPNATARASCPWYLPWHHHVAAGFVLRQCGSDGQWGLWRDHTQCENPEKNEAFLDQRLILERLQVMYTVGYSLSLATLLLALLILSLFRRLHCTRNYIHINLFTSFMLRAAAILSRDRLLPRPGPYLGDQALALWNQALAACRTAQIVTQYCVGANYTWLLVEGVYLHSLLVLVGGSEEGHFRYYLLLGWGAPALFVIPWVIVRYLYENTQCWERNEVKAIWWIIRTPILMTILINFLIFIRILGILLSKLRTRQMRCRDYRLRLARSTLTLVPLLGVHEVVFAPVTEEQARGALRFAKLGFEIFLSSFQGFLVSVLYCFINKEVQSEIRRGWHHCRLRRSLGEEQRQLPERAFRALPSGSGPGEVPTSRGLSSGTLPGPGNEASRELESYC
How it was run: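 HEK-293 cells stably expressing human GIP receptor were incubated with compound for 30 min at room temperature in HBSS/20 mM HEPES/0.1% BSA with 2 mM IBMX. cAMP was measured by HTRF (665/616 nm ratio) after 1 h with detection reagents in lysis buffer; EC50 is the concentration giving 50% of maximal response.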

[1] = Dynamic light scattering, hydrodynamic radius as surrogate for DLS interaction parameter kD; assay type: physicochemical
How it was run: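 Rh and diffusion constant D averaged over triplicates at 1 and 5 mg/ml peptide in 25 mM acetate pH 4.5 with L-methionine, m-cresol and glycerol; 25 °C, 830 nm laser, 158° detection, NNLS fitting. Rh5<Rh1 or D5>D1 taken as kD>0 (repulsive interactions).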

T1 sequence (P47871 26-477): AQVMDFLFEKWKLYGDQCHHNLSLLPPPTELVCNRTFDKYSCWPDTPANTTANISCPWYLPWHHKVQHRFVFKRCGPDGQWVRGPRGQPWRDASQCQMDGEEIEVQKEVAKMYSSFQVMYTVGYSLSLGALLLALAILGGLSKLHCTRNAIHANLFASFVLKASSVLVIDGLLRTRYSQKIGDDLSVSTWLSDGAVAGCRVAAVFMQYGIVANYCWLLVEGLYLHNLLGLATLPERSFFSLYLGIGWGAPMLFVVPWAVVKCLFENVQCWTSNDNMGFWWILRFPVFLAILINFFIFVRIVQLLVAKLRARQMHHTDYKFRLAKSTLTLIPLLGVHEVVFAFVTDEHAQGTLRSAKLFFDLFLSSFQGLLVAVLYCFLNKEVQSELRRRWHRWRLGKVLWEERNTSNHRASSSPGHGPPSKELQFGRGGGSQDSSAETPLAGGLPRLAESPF

CCCCCCCCCCCCCCCC(=O)N[C@@H](CCC(=O)N[C@@H](CCC(=O)NCCCC[C@H](NC(=O)[C@H](CC(C)C)NC(=O)[C@H](CCCCN)NC(=O)[C@H](CO)NC(=O)[C@H](CC(C)C)NC(=O)[C@H](CC(=O)O)NC(=O)[C@H](CO)NC(=O)[C@@H](NC(=O)[C@H](Cc1ccccc1)NC(=O)[C@@H](NC(=O)CNC(=O)[C@H](Cc1c[nH]cn1)NC(=O)C(C)(C)NC(=O)[C@@H](N)Cc1c[nH]cn1)[C@@H](C)O)[C@@H](C)O)C(=O)N[C@@H](CCC(=O)O)C(=O)N[C@@H](CCC(=O)O)C(=O)N[C@@H](CCC(N)=O)C(=O)N[C@@H](CCCNC(=N)N)C(=O)N[C@@H](CCC(N)=O)C(=O)NC(C)(C)C(=O)N[C@@H](CCC(=O)O)C(=O)N[C@@H](Cc1ccccc1)C(=O)N[C@H](C(=O)N[C@@H](CCC(=O)O)C(=O)N[C@@H](Cc1c[nH]c2ccccc12)C(=O)N[C@@H](CC(C)C)C(=O)N[C@@H](CCCCN)C(=O)N[C@@H](C)C(=O)NCC(=O)NCC(=O)N[C@@H](Cc1c[nH]cn1)C(=O)N1CCC[C@H]1C(=O)N[C@@H](CO)C(=O)NC(C)(C)C(=O)N[C@@H](CCCCN)C(=O)N1CCC[C@H]1C(=O)N1CCC[C@H]1C(=O)N1CCC[C@H]1C(=O)N[C@@H](CCCCN)C(N)=O)[C@@H](C)CC)C(=O)O)C(=O)O [SEQ ID NO: 12, H-Aib-H-G-T-F-T-S-D-L-S-K-L-K[gGlu-gGlu-Palm]-E-E-Q-R-Q-Aib-E-F-I-E-W-L-K-A-G-G-H-P-S-Aib-K-P-P-P-K-NH2]
EC50 (human glucagon receptor): 2 pM | EC50 (human GIP receptor): 1.9 pM | Delta Rh [nm] = Rh5 − Rh1 ([1]; DLS buffer system A pH 4.5): −0.3 nm | Rh1 [nm] c = 1 mg/ml ([1]; hydrodynamic radius, 1 mg/ml, DLS buffer system A pH 4.5, method C, 25° C.): 2.9 nm | Rh5 [nm] c = 5 mg/ml ([1]; hydrodynamic radius, 5 mg/ml, DLS buffer system A pH 4.5, method C, 25° C.): 2.6 nm
